Data set [1] concerns foreign body and immune rejection responses to implanted biomedical devices. The note with it: non-human primates; cited from earlier work.
Data set [2] has the same test system. The note with it: rodents; cited from earlier work.
Data set [3] is described as follows: in vitro release under accelerated release conditions. The data set is classed as physicochemical. The note with it: 37° C., PBS+0.3% SDS, 2.9 mg drug, 12-day time course; amorphous vs 50 μm vs 150-200 μm crystals. The text has this: After crystals visibly stopped precipitating or growing, the vessel was submerged in an ultrasonic water bath for 10-30 seconds to dislodge crystals from the vessel sidewall and break them into more a uniform size distributions, either smaller fines, for example 50 μm, or between 150-200 μm, as measured by brightfield and scanning electron microscopy, shown in FIGS. 2A-2B. Resultant product was then removed from the supernatant mother solution, dried, weighed, and stored for later use. On average, yielded crystal was approximately 40% of the starting powder. Furthermore, methods exist to quantify solubilized material, typically using optics to identify changes in light transmittance, and enabled testing of crystal stability in a range of aqueous solutions. […] To simulate cumulative drug release over time, all 3 mL supernatant volumes were removed and replaced with completely fresh release media at desired times of 1 hr, 4 hr, 6 hr, 8 hr, 10 hr, 1 day, 2 days, 5 days, 7 days, 10 days and 12 days, and 200 μL aliquots were measured in individual wells of a 96-well plate at 266 nm to determine solubilize sorafenib release, as shown in FIG. 2D.
Release studies were carried out under accelerated conditions in PBS with 0.3% w/v SDS in 1X PBS. […] Drug concentration in samples was measured using a UV-calibrated Tecan infinite M200 PRO. […]

The conditions of data set [4]: SD rats; cited from earlier work.
A further data set relates to MDA-MB-231. The note with it: 30 mg/kg bodyweight daily oral, cited from earlier work.
Data set [5] is described as follows: body weight of treated tumor-bearing mice. Format: in vivo, BALB/c mice. The note with it: daily 25 mg/kg bolus in ~60% DMSO solvent solution. The protocol: However, due to the highly hydrophobic nature of sorafenib, its daily 25 mg/kg bolus dosing regimen required regular used of a solvent solution made up of ˜60% of the strong organic solvent dimethylsulfoxide (DMSO). […] In stark contrast, no DMSO was required for delivery of sorafenib crystals, for which instead simply utilized ˜100-200 μl of saline to inject into the desired IP or SC tissue sites.
Once tumors had reached an average volume of ˜220-250 mm^3, mice were administered either subcutaneously or intraperitoneally with 3 or 10 mg of crystalline sorafenib, diameter ˜150-200 μm, suspended in 200 μL of sterile saline using an 18 g needle. As a control, mice (n=4) were dosed with sorafenib dissolved at a concentration of 4 mg/mL in a solution of 65% DMSO (remainder DPBS). Mice were dosed either subcutaneously or intraperitoneally with a bolus of 25 mg drug per kg of bodyweight (BW), daily. As a secondary control, mice were dosed with the 65% DMSO/PBS vehicle to monitor changes in body score based on the vehicle alone.

In another data set the test system is tumor endothelial CD31. The data set is described as follows: immunofluorescent staining of tumors: CD31. The data set is classed as in vivo, BALB/c mice. The note with it: daily bolus IP 25 mg/kg/day. The method, then:
(§1) To confirm the effects seen at the level of RNA, immunofluorescent staining of excised tumor samples that were in parallel fixed with paraformaldehyde and embedded in paraffin was performed. […] Co-localization of CD31 with aSMact was, as expected, not linked in crystal sorafenib-treated tumors, where CD31 reduction was more extensive than with daily, bolus sorafenib.
(§2) Immunofluorescence imaging was used to determine anti-angiogenic drug efficacy. Tumor tissues were retrieved from mice and fixed overnight using 4% paraformaldehyde at 4° C. After fixation, retrieved tissue samples were moved to 70% ethanol. Samples were then processed for paraffin embedding, sectioning and staining. […] Next, tissues were incubated for 1 hour in an immunostaining cocktail solution consisting of NucBlue (Thermo), specific marker probes (1:200 dilution) anti-CD31 (Cat#DIA-310, HistoBioTec) and anti-alphaSmoothMuscle actin-Cy3 (Sigma) in Dako staining buffer. For CD31, a goat anti-rat alexa-fluor647 secondary antibody was also used (1:400). After staining, samples were rinsed again with 1X PBS three times prior to slides being cover slipped with Pro-long anti-fade Gold (Thermo). […] For stain quantification, images were converted into 8-bit image files, a background threshold was determined using NIH ImageJ, and then all images were processed using an NIH ImageJ macro to quantify the area of positive stain. […]

For a further data set, the system named is caspase-3/7. The data set is described as follows: Caspase-Glo 3/7 of tumor lysates. To be noted: daily bolus regimen; tumors at end of study. Format: in vivo, BALB/c mice. The protocol: as §1
Caspase activity was determined using the Caspase-Glo 3/7 assay kit and the manufacturer's protocol, with the following modifications. Protein samples (prepared by sonication probe in NP40 lysis buffer (Cat#FNN0021, Thermo)+Halt protease inhibitor cocktail (Cat#78425, Thermo)) were prepared in a 96-well plate following BCA assay (Cat#23225, Pierce/Thermo) protein quantification ([…] in 50 μl) were incubated with 50 μl of reconstituted caspase 3/7 substrate. After a brief shaking, the plate was incubated at room temperature for 1 hr and luciferase activity was determined using a BioTek Synergy 2 plate reader (Biotek; Winooski, VT).

For the next data set, the system named is 4T1. To be noted: 20-60 mg/kg dosing; cited from earlier work.
The next data set concerns 4T1 tumors. The data set is described as follows: orthotopic parent 4T1 TNBC tumor growth. The data set is classed as in vivo, BALB/c mice. To be noted: daily IP bolus 25 mg/kg BW/day, dissolved in ~60% DMSO. The protocol:
Namely, 4T1 tumors were treated with either PBS (PBS CONTROL), intraperitoneal (IP) bolus sorafenib (25 mg/kg BW/day) (IP BOLUS), 3 mg IP injected sorafenib crystals (IP CRYSTAL 3 MG), or sorafenib crystals (3 mg: SC CRYSTAL (3 MG); 10 mg: SC CRYSTAL (10 MG)) injected around developed tumors in the subcutaneous (SC) mammary fatpad. Furthermore, to truly test the utility of crystalline sorafenib in treating such an aggressive TNBC model, treatment was carried out retrospectively and only started once tumor volumes reached ˜225-250 mm^3. A positive control liquid-dissolved and daily injected drug treatment group was included, where mice were dosed with a daily bolus of 25 mg sorafenib/kg of mouse BW. […] This may be supported by our prior observation that in the IP compartment, where there is higher 10 liquid turnover as compared to the SC space, crystalline drugs usually have a faster kinetic of release over time.
4T1 or 4T1-luc2 cells were trypsinized using 0.25% Trypsin-EDTA, then diluted with the appropriate complete culture media and spun in a centrifuge at 300 g for 5 min. The supernatant was aspirated, and the pellet was re-suspended in serum-free RPMI 1640. The solution was centrifuged again, and the supernatant aspirated. Re-suspension, centrifugation, and aspiration was repeated once more. 5 mL of RPMI-1640 was then added to the pellet. 10 μL of the cell suspension was removed and mixed with 10 μL of Trypan blue stain 0.4% (ThermoFisher). Cells were counted with a Countess automated cell counter. Cell solutions were centrifuged one more time, the supernatant aspirated, and the pellet resuspended in the amount of RPMI-1640 required to achieve a concentration of 5×10^5 cells/200 μL of media. Tumor cells were then administered orthotopically in naive (and anesthetized) BALB/c mice into the right inguinal mammary fat pad 21 with 200 μL aliquots of the cell suspension, using an insulin syringe. Tumors were measured externally using a digital caliper, and volume was calculated (!″* (length * height) *−length * height). Except in the 4T1-luc2 trial, treatment began once tumors reached an average volume of 220-250 mm3. Experimental end point was deemed when solid tumors reached a volume of no more than 2000 mm3. Tumors were extracted and harvested, half stored in 4% paraformaldehyde diluted from 32% (Cat#50980495, Electron Microscopy Services) with DI H2O, and half frozen in liquid nitrogen, then stored at −80° C.
Once tumors had reached an average volume of ˜220-250 mm^3, mice were administered either subcutaneously or intraperitoneally with 3 or 10 mg of crystalline sorafenib, diameter ˜150-200 μm, suspended in 200 μL of sterile saline using an 18 g needle. […]

Data set [6] concerns macrophage Cd68 and myeloid Cd11b. The data set is described as follows: qPCR of retrieved tumors: immune markers. To be noted: daily IP bolus 25 mg/kg BW/day. Format: in vivo, BALB/c mice. Background: Quantitative PCR measures a nucleic acid by following its amplification.
The test system of data set [7] is alpha Smooth Muscle actin (aSMact). The data set is described as follows: immunofluorescent staining of tumors: aSMact. Format: in vivo, BALB/c mice. The note with it: daily bolus IP 25 mg/kg/day. The method, then:
as §1, §2

Like-named read-outs stand apart in the source and are kept apart here.

Results on 4 compounds are retold here after patent US20240366577A1, “CONTROLLED LONG-TERM DRUG DELIVERY AND METHODS THEREOF” (THE JOHNS HOPKINS UNIVERSITY, priority 2021, published 2024).

`COc1ccc(COc2ccc(Cc3cnc(N)nc3N)cc2OC)cc1` [GW2580]: the figures for the “duration of suppression of foreign body and immune rejection responses” value in data set [1] and in data set [2] were no less than 6 months and “over 1.3 years”, respectively.
On to `CNC(=O)c1cc(Oc2ccc(NC(=O)Nc3ccc(Cl)c(C(F)(F)F)c3)cc2)ccn1` [amorphous (powder) sorafenib, sorafenib], for which the “release of solubilized sorafenib (cumulative)” value in data set [3] is on record as “fastest release”.
On to `CO[C@H]1C[C@@H]2CC[C@@H](C)[C@@](O)(O2)C(=O)C(=O)N2CCCC[C@H]2C(=O)O[C@H]([C@H](C)C[C@@H]2CC[C@@H](O)[C@H](OC)C2)CC(=O)[C@H](C)/C=C(\C)[C@@H](O)[C@@H](OC)C(=O)[C@H](C)C[C@H](C)/C=C/C=C/C=C/1C` [crystalline rapamycin, rapamycin], for which, in data set [4], the “inflammatory activity / biocompatibility” value was “no inflammatory activity”.
Regarding `CNC(=O)c1cc(Oc2ccc(NC(=O)Nc3ccc(Cl)c(C(F)(F)F)c3)cc2)ccn1` [sorafenib], in the data set with MDA-MB-231 (after 9 days), the tumor reduction is on record as 42%. For the same compound, the angiogenic inhibition result with MDA-MB-231 was “significant angiogenic inhibition”. The body weight loss in data set [5] was 15-20%. The “tumor endothelial CD31 levels (immunofluorescence)” value in the data set with tumor endothelial CD31 is reported as “significant reduction”. The “apoptotic index (caspase-3/7 levels in tumor lysates)” value with caspase-3/7 is “significantly increased”. Besides, in the data set with 4T1, the “effects on tumor growth” value is “negligible effects” and the “recruitment/polarization of CD206+ F4/80+ M2 macrophages” value is listed as “higher recruitment/polarization”. For the same compound, the tumor volumes result with 4T1 tumors is “slight dip in tumor volumes”. Besides, the “Cd68 and Cd11b expression levels (qPCR)” value in data set [6] is “no significant changes”. For the same compound, the “tumor aSMact levels (immunofluorescence)” value in data set [7] was “significant reduction”.
